# Laboratory results as given in US20070093520A1, “Method of treatment of diarrhea-predominant irritable bowel syndrome in a subject” (priority 2005, published 2007).
# Like-named read-outs stand apart in the source and are kept apart here.
# Tested on: diarrhea-predominant IBS subjects
# Assay type: in vivo, human
# Conditions: for Number of subjects who died / Primary reason for withdrawal: Adverse event and lack of efficacy / Primary reason for withdrawal: Baseline complaint/adverse event: 2 mg TID
# Method: The study was performed in approximately 150 study centers. Approximately 1600 eligible subjects were to be given cilansetron 2 mg TID. At Visit 1, pre-treatment assessments were conducted. […] Subjects were to return to the study site one month later for Visit 3 (Day 31) for their first interim assessment. […] All subjects who discontinued from the study were to have the same post-study assessments required at Visit 7 performed at their early termination visit. […]
# Stool specimens were analyzed at every visit for occult blood. An independent GERB had been established to provide advice on GI AEs during the course of the study.
# Adverse events were assessed at Baseline, at each clinic visit, and at the end of the study (Month 12 or the early termination visit). All AEs, which occurred during the study were followed up in accordance with good medical practice until resolved or judged no longer clinically significant, or if a condition was chronic, until fully characterized. Adverse events could occur in the specified follow-up period and, regardless of the interval since the last administration of the study medication, were treated in the same manner as an AE which occurred during the treatment with study medication. Each AE was evaluated for duration, severity, seriousness, and causal relationship to the investigational drug. The action taken and the outcome were also recorded.
# Specifically, subjects who were lost to follow-up and had no post-Baseline contact with the site were excluded from the Safety population. The subjects who discontinued from the study due to lost to follow-up were identified based on the information collected on the study termination CRF page.
# After the pretreatment assessment at Visit 1 (Days […] to −3), subjects were to return to the study site for a Baseline assessment and start the treatment at Visit 2 (Day 1).
# For the by time-interval analyses of disposition, prevalence of AEs, and of markedly abnormal and predefined changes in laboratory values, vital signs, and ECGs, the following interval windows were used:
# Adverse events that were already present prior to the first dose of cilansetron study medication but increased in severity afterwards were considered as treatment-emergent.
# The 5% cutoff point was based on the incidence within higher level terms.
# Subjects were counted at most once for each primary system organ class and preferred term. Serious AEs that resolved prior to receiving study medication or occurred more than 30 days after the last dose of study medication were not included in the incidence tables. A listing of all SAEs is presented; SAEs with onset prior to receiving study medication or more than 30 days after discontinuation of study medication were flagged. The listing presents lower level term and preferred term of the SAE, severity, action taken, outcome, and relationship of the SAE, start and stop date of the SAE, study day of onset of the SAE, age, race, and sex.
# [1] = Cilansetron 2 mg, N=1454, % of appropriate gender
# [2] = Study 3008, 2 mg TID (N = 1454)
# [3] = Study 3008, of subjects who received study medication
# [4] = TEAE incidence, 2 mg, Safety Population, HLT
structure (smiles),measurement,setting,value
"Cc1nccn1C[C@H]1CCc2c(c3cccc4c3n2CCC4)C1=O [cilansetron, (R)-(−)-4,5,6,8,9,10-hexahydro-10-[(2-methyl-1H-imidazol-1-yl)methyl]-11H-pyrido-[3,2,1-jk]-carbazol-11-one]",TEAE incidence: Transient Cerebrovascular Events,"Cilansetron 2 mg, N=1454",1 (<1%) n (%)
same,TEAE incidence: Transient Global Amnesia,"Cilansetron 2 mg, N=1454",1 (<1%) n (%)
same,TEAE incidence: Transient Ischaemic Attack,"Cilansetron 2 mg, N=1454",1 (<1%) n (%)
same,TEAE incidence: Tremor,"Cilansetron 2 mg, N=1454",2 (<1%) n (%)
same,TEAE incidence: Tremor (Excl Congenital),"Cilansetron 2 mg, N=1454",2 (<1%) n (%)
same,TEAE incidence: Triglyceride Analyses,"Cilansetron 2 mg, N=1454",11 (<1%) n (%)
same,TEAE incidence: Urethritis Non-Specific,"Cilansetron 2 mg, N=1454",1 (<1%) n (%)
same,TEAE incidence: Urinalysis NEC,"Cilansetron 2 mg, N=1454",20 (1%) n (%)
same,TEAE incidence: Urine Bilirubin Increased,"Cilansetron 2 mg, N=1454",2 (<1%) n (%)
same,TEAE incidence: Urine Ketone Body Present,"Cilansetron 2 mg, N=1454",2 (<1%) n (%)
same,TEAE incidence: Vascular Tests NEC (Incl Blood Pressure),"Cilansetron 2 mg, N=1454",7 (<1%) n (%)
same,TEAE incidence: Vasovagal Attack,"Cilansetron 2 mg, N=1454",1 (<1%) n (%)
same,TEAE incidence: Viraemia NOS Present,"Cilansetron 2 mg, N=1454",3 (<1%) n (%)
same,TEAE incidence: Vitamin Analyses,"Cilansetron 2 mg, N=1454",1 (<1%) n (%)
same,TEAE incidence: Vitamin B12 Decreased,"Cilansetron 2 mg, N=1454",1 (<1%) n (%)
same,TEAE incidence: Vomiting NOS,"Cilansetron 2 mg, N=1454",25 (2%) n (%)
same,TEAE incidence: Weight Decreased,"Cilansetron 2 mg, N=1454",3 (<1%) n (%)
same,TEAE incidence: Weight Increased,"Cilansetron 2 mg, N=1454",13 (<1%) n (%)
same,TEAE incidence: White Blood Cell Analyses,"Cilansetron 2 mg, N=1454",25 (2%) n (%)
same,TEAE incidence: White Blood Cell Count Decreased,"Cilansetron 2 mg, N=1454",4 (<1%) n (%)
same,TEAE incidence: White Blood Cell Count Increased,"Cilansetron 2 mg, N=1454",1 (<1%) n (%)
same,TEAE incidence: White Blood Cells Urine,"Cilansetron 2 mg, N=1454",3 (<1%) n (%)
same,TEAE incidence: White Blood Cells Urine Positive,"Cilansetron 2 mg, N=1454",2 (<1%) n (%)
same,TEAE incidence: abdominal pain NOS,"Cilansetron 2 mg, N=1454",156 (11%) n (%)
same,TEAE incidence: back pain,"Cilansetron 2 mg, N=1454",40 (3%) n (%)
same,TEAE incidence: constipation,"Cilansetron 2 mg, N=1454",222 (15%) n (%)
same,TEAE incidence: flatulence,"Cilansetron 2 mg, N=1454",38 (3%) n (%)
same,"TEAE incidence: flatulence, bloating and distension","Cilansetron 2 mg, N=1454",91 (6%) n (%)
same,TEAE incidence: headache NOS,"Cilansetron 2 mg, N=1454",100 (7%) n (%)
same,TEAE incidence: nasopharyngitis,"Cilansetron 2 mg, N=1454",44 (3%) n (%)
same,TEAE incidence: nausea,"Cilansetron 2 mg, N=1454",78 (5%) n (%)
same,TEAE incidence: nausea and vomiting symptoms,"Cilansetron 2 mg, N=1454",92 (6%) n (%)
same,TEAE incidence: sinusitis NOS,"Cilansetron 2 mg, N=1454",25 (2%) n (%)
same,Total Number of Subjects with at Least One TEAE,"Cilansetron 2 mg, N=1454",931 (64%) n (%)
same,TEAE incidence: Female Reproductive Tract Infections*,[1],4 (<1%) n (%)
same,TEAE incidence: Oophoritis*,[1],1 (<1%) n (%)
same,TEAE incidence: Pelvic Inflammatory Disease NOS*,[1],1 (<1%) n (%)
same,TEAE incidence: Vaginal Candidiasis*,[1],5 (<1%) n (%)
same,TEAE incidence: Vaginitis*,[1],2 (<1%) n (%)
same,TEAE incidence: Vulvovaginitis Trichomonal*,[1],1 (<1%) n (%)
same,TEAEs that led to dose reduction,Study 3008,2%
same,TEAEs that led to permanent discontinuation of study medication,Study 3008,Thirteen
same,"overall incidence of TEAEs possibly, probably, or unlikely related to study medication",Study 3008,42%
same,severe TEAEs,Study 3008,9%
same,special interest TEAEs,Study 3008,54%
same,subjects with a treatment emergent SAE,Study 3008,Six
same,subjects with at least one TEAE,Study 3008,Sixty-four
same,withdrawal for AEs (combined categories),Study 3008,13%
same,withdrawal for lack of efficacy (combined categories),Study 3008,12%
same,Number of subjects who died,Study 3008,1 n
same,Primary reason for withdrawal: Adverse event and lack of efficacy,Study 3008,119 n
same,Primary reason for withdrawal: Baseline complaint/adverse event,Study 3008,75 n
same,Number of deaths,[2],1 (<1) n (%)
same,Number of subjects who permanently discontinued study medication due to a TEAE,[2],192 (13) n (%)
same,Number of subjects with at least one AE of special interest,[2],789 (54) n (%)
same,Number of subjects with at least one SAE,[2],85 (6) n (%)
same,Number of subjects with at least one TEAE,[2],931 (64) n (%)
same,Number of subjects with at least one TEAE leading to dose reduction,[2],34 (2) n (%)
same,Number of subjects with at least one related TEAE,[2],604 (42) n (%)
same,Number of subjects with at least one severe TEAE,[2],138 (9) n (%)
same,Number of subjects who died,[3],(<1) %
same,Primary reason for withdrawal: Adverse event and lack of efficacy,[3],(8) %
same,Primary reason for withdrawal: Baseline complaint/adverse event,[3],(5) %
same,Acnes,[4],2 (<1%) n (%)
same,Affect Alterations NEC,[4],2 (<1%) n (%)
same,Alopecias,[4],6 (<1%) n (%)
same,Anxiety Disorders NEC (Incl Obsessive Compulsive Disorder),[4],1 (<1%) n (%)
same,Anxiety Symptoms,[4],26 (2%) n (%)
same,Apocrine and Eccrine Gland Disorders,[4],8 (<1%) n (%)
same,Appetite Disorders,[4],15 (1%) n (%)
same,Arthropathies NEC,[4],6 (<1%) n (%)
same,Asthenic Conditions,[4],38 (3%) n (%)
same,Benign and Malignant Breast Neoplasms*,[4],2 (<1%) n (%)
same,Bladder Disorders NEC,[4],1 (<1%) n (%)
same,Bladder and Urethral Symptoms,[4],18 (1%) n (%)
same,Breast Disorders NEC*,[4],1 (<1%) n (%)
same,Breast Signs and Symptoms*,[4],4 (<1%) n (%)
same,Breathing Abnormalities,[4],7 (<1%) n (%)
same,Bronchospasm and Obstruction,[4],10 (<1%) n (%)
same,Bursal Disorders,[4],1 (<1%) n (%)
same,Cardiac Conduction Disorders,[4],4 (<1%) n (%)
same,Cardiac Signs and Symptoms NEC,[4],5 (<1%) n (%)
same,Cartilage Disorders,[4],1 (<1%) n (%)
same,Cervix Disorders NEC*,[4],1 (<1%) n (%)
same,Chest and Lung Injuries NEC,[4],1 (<1%) n (%)
same,Connective Tissue Disorders (Excl Le),[4],1 (<1%) n (%)
same,Coronary Artery Disorders NEC,[4],2 (<1%) n (%)
same,Coughing and Associated Symptoms,[4],28 (2%) n (%)
same,Depressive Disorders,[4],28 (2%) n (%)
same,Dermal and Epidermal Conditions NEC,[4],4 (<1%) n (%)
same,Dermatitis and Eczema,[4],16 (1%) n (%)
same,Diabetes Mellitus (Incl Subtypes),[4],4 (<1%) n (%)
same,Dissociative States,[4],1 (<1%) n (%)
same,Disturbances in Initiating and Maintaining Sleep,[4],20 (1%) n (%)
same,Elevated Cholesterol,[4],9 (<1%) n (%)
same,Elevated Triglycerides,[4],8 (<1%) n (%)
same,Erection and Ejaculation Conditions and Disorders*,[4],2 (<1%) n (%)
same,Erythemas,[4],1 (<1%) n (%)
same,Extremity Deformities,[4],1 (<1%) n (%)
same,Eye Injuries NEC,[4],1 (<1%) n (%)
same,Fear Symptoms,[4],1 (<1%) n (%)
same,Febrile Disorders,[4],20 (1%) n (%)
same,Fluctuating Mood Symptoms,[4],2 (<1%) n (%)
same,Food Malabsorption and Intolerance Syndromes (Excl Sugar Intolerance),[4],1 (<1%) n (%)
same,General Nutritional Disorders NEC,[4],3 (<1%) n (%)
same,General Signs and Symptoms NEC,[4],14 (<1%) n (%)
same,Heart Failure Signs and Symptoms,[4],1 (<1%) n (%)
same,Hyperglycaemic Conditions NEC,[4],4 (<1%) n (%)
same,Hyperlipidaemias NEC,[4],3 (<1%) n (%)
same,Increased Physical Activity Levels,[4],1 (<1%) n (%)
same,Intervertebral Disc Disorders NEC,[4],3 (<1%) n (%)
same,Ischaemic Coronary Artery Disorders,[4],7 (<1%) n (%)
same,Joint Related Signs and Symptoms,[4],31 (2%) n (%)
